Experimental data published in PubChem BioAssay AID504394 (Southern Research Specialized Biocontainment Screening …, 2011).
The source made the active and inactive calls. The rule behind the calls is not given here.

What follows are compounds tested on host cell cytotoxicity, % cell control, 2% serum (assay: viability of cells used for CXCR4-tropic fusion test – fusion assay cells, 2% serum, TC50, cytotoxicity control for HIV-1 antiviral lead project, dose response (AID 504394)).

| SMILES | TC50 |
| --- | --- |
| O=C(O)CCCN1C(=O)/C(=C\c2ccc(-c3cccc(Cl)c3)o2)SC1=S | > 100 µM (inactive) |
| O=C(O)CCCN1C(=O)/C(=C/c2ccc(-c3ccc(Cl)c(Cl)c3)o2)SC1=S | 12.4 µM |
| COc1cccc(C2C(C(=O)Nc3ccccc3)=C(C)N=c3sc(=Cc4ccc(OCC(=O)O)cc4)c(=O)n32)c1 (configuration not stated) | > 100 µM (inactive) |
| CCOC(=O)C1=C(C)N=c2sc(=Cc3ccc(OCC(=O)O)cc3)c(=O)n2C1c1ccc(OC)cc1OC (configuration not stated) | > 100 µM (inactive) |
| Nc1sc2ccccc2[n+]1Cc1ccc(C(=O)O)cc1 | > 100 µM (inactive) |
| Cc1c2c(=O)n(-c3nc4ccccc4s3)nc-2cc(O)n1Cc1cccnc1 | > 100 µM (inactive) |
| CC1=C(C(=O)OC(C)C)C(c2ccc(Cl)cc2)n2c(s/c(=C\c3ccc(OCC(=O)O)cc3)c2=O)=N1 (configuration not stated) | > 100 µM (inactive) |
| COc1ccc(CCn2c(O)cc3nn(-c4nc5ccccc5s4)c(=O)c-3c2C)cc1 | 63.2 µM |
| COc1ccc(Cn2c(O)cc3nn(-c4nc5ccccc5s4)c(=O)c-3c2C)cc1 | 61.8 µM |
| O=C(O)c1ccc(C[n+]2c(-c3ccccc3)csc2Nc2ccccc2)cc1 | > 100 µM (inactive) |
| CCOc1ccc(-n2cccc2/C=C2/C(=N)N3C(=NC2=O)SN=C3S(C)(=O)=O)cc1 | 84.7 µM |
| O=C(O)CCCN1C(=O)/C(=C/c2ccc(-c3cccc(C(F)(F)F)c3)o2)SC1=S | > 100 µM (inactive) |
| CCOC(=O)C1=C(C)N=c2s/c(=C\c3ccc(OCC(=O)O)cc3)c(=O)n2C1c1ccc(OC)c(OCC)c1 (configuration not stated) | 78.4 µM |
| Cc1c2c(=O)n(-c3nc4ccccc4s3)nc-2cc(O)n1Cc1ccncc1 | > 100 µM (inactive) |
| CS(=O)(=O)C1=NSC2=NC(=O)/C(=C\c3cccn3-c3ccc(Br)cc3)C(=N)N21 | 46.2 µM |
| Cc1c2c(=O)n(-c3nc4ccccc4s3)nc-2cc(O)n1CCC(C)C | 68.5 µM |
| COc1cccc(-n2cccc2/C=C2/C(=N)N3C(=NC2=O)SN=C3S(C)(=O)=O)c1 | > 100 µM (inactive) |
| COc1ccc(-c2ccc(/C=C3\SC(=S)N(CCCC(=O)O)C3=O)o2)cc1 | 68.3 µM |
| Cc1c2c(=O)n(-c3nc4ccccc4s3)nc-2cc(O)n1CCc1cccs1 | > 100 µM (inactive) |

| SMILES | TC50 |
| --- | --- |
| CS(=O)(=O)C1=NSC2=NC(=O)/C(=C\c3cccn3-c3ccc(F)cc3)C(=N)N21 | > 100 µM (inactive) |
| Cc1ccc(-c2ccc(/C=C3\SC(=S)N(CCCC(=O)O)C3=O)o2)cc1 | > 100 µM (inactive) |
| O=C(O)c1ccc(C[n+]2c(-c3ccc([N+](=O)[O-])cc3)csc2Nc2ccccc2)cc1 | > 100 µM (inactive) |
| CCOC(=O)C1=C(C)N=c2sc(=Cc3ccc(OCC(=O)O)cc3)c(=O)n2C1c1ccc(F)cc1 (configuration not stated) | > 100 µM (inactive) |
| Cc1c2c(=O)n(-c3nc4ccccc4s3)nc-2cc(O)n1C1CC1 | 83.9 µM |
| CCOC(=O)C1=C(C)N=c2sc(=Cc3ccc(OCC(=O)O)cc3)c(=O)n2C1c1ccccc1OC (configuration not stated) | > 100 µM (inactive) |
| Cc1c2c(=O)n(-c3nc4ccccc4s3)nc-2cc(O)n1CCc1ccc(O)cc1 | 30 µM |
| O=C(O)c1ccc([C@@H]2Nc3ccc(S(=O)(=O)Nc4cccc5ccccc45)cc3[C@@H]3C=CC[C@@H]32)cc1 | > 100 µM (inactive) |
| CS(=O)(=O)C1=NSC2=NC(=O)/C(=C\c3cccn3-c3cccc(F)c3)C(=N)N21 | > 100 µM (inactive) |
| Cc1ccc(-n2cccc2/C=C2/C(=N)N3C(=NC2=O)SN=C3S(C)(=O)=O)cc1 | 66.5 µM |
| O=C(O)CCC(C(=O)O)N1C(=O)/C(=C\c2ccco2)SC1=S (configuration not stated) | > 100 µM (inactive) |
| Cc1c2c(=O)n(-c3nc4ccccc4s3)nc-2cc(O)n1Cc1ccc(F)cc1 | 59.9 µM |
| Cc1c2c(=O)n(-c3nc4ccccc4s3)nc-2cc(O)n1Cc1ccccc1Cl | 38.1 µM |
| CCOC(=O)C1=C(c2ccccc2)N=c2s/c(=C\c3ccc(OCC(=O)O)cc3)c(=O)n2C1c1cccc(OC)c1 (configuration not stated) | 80.4 µM |
| CCOC(=O)C1=C(C)N=c2sc(=Cc3ccc(OCC(=O)O)cc3)c(=O)n2C1c1ccccc1 (configuration not stated) | > 100 µM (inactive) |
| O=C(O)CCCN1C(=O)/C(=C\c2ccc(-c3ccc(F)cc3)o2)SC1=S | 38.1 µM |
| CS(=O)(=O)C1=NSC2=NC(=O)/C(=C\c3cccn3-c3cccc(C(F)(F)F)c3)C(=N)N21 | > 100 µM (inactive) |
| CCOC(=O)C1=C(C)N=c2sc(=Cc3ccc(OCC(=O)O)cc3)c(=O)n2C1c1cc(OC)c(OC)c(OC)c1 (configuration not stated) | > 100 µM (inactive) |
